Measured values as given in ChEMBL document CHEMBL1201862, “PubChem BioAssay data set” (2004).
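Cells were grown in 96-well plates and exposed to each compound for 48 hours at five concentrations; endpoints were interpolated linearly between bracketing concentrations, or set to the highest concentration if not reached. GI50 = concentration required for 50% inhibition of growth.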 Activity calls are given as the source filed them. Rule as the data show it: active = GI50 up to about 1.1 µM and inactive = higher.

Assays:
Experiment in all cases: inhibition of tumour cell growth, NCI panel, 48 h
786-0 = test system: 786-0
A498 = test system: A498
A549 = test system: A549
ACHN = test system: ACHN
CAKI-1 = test system: CAKI-1
CCRF-CEM = test system: CCRF-CEM
COLO 205 = test system: COLO 205
DLD-1 = test system: DLD-1
DMS-114 = test system: DMS-114
EKVX = test system: EKVX
HCC 2998 = test system: HCC 2998
HCT-116 = test system: HCT-116
HCT-15 = test system: HCT-15
HL-60 = test system: HL-60
HOP-62 = test system: HOP-62
HT-29 = test system: HT-29
IGROV-1 = test system: IGROV-1
K562 = test system: K562
LXFL 529 = test system: LXFL 529
M14 = test system: M14
M19-MEL = test system: M19-MEL
MOLT-4 = test system: MOLT-4
Malme-3M = test system: Malme-3M
NCI-H226 = test system: NCI-H226
NCI-H23 = test system: NCI-H23
NCI-H460 = test system: NCI-H460
NCI-H522 = test system: NCI-H522
OVCAR-3 = test system: OVCAR-3
OVCAR-4 = test system: OVCAR-4
OVCAR-5 = test system: OVCAR-5
OVCAR-8 = test system: OVCAR-8
RPMI-8226 = test system: RPMI-8226
SF-268 = test system: SF-268
SF-295 = test system: SF-295
SK-MEL-28 = test system: SK-MEL-28
SK-MEL-2 = test system: SK-MEL-2
SK-MEL-5 = test system: SK-MEL-5
SK-OV-3 = test system: SK-OV-3
SN12C = test system: SN12C
SNB-19 = test system: SNB-19
SNB-75 = test system: SNB-75
SNB-78 = test system: SNB-78
SR = test system: SR
SW-620 = test system: SW-620
TK-10 = test system: TK-10
U-251 = test system: U-251
UACC-257 = test system: UACC-257
UACC-62 = test system: UACC-62
UO-31 = test system: UO-31
HOP-92 = test system: HOP-92
KM12 = test system: KM12
LOX IMVI = test system: LOX IMVI
SF-539 = test system: SF-539
BT-549 = test system: BT-549
DMS-273 = test system: DMS-273
DU-145 = test system: DU-145
HOP-18 = test system: HOP-18
Hs-578T = test system: Hs-578T
KM-20L2 = test system: KM-20L2
MCF7 = test system: MCF7
MDA-MB-231 = test system: MDA-MB-231
MDA-N = test system: MDA-N
PC-3 = test system: PC-3
RXF 393 = test system: RXF 393
T47D = test system: T47D

Cc1nc2ccccc2c(=O)n1-c1ccccc1I
GI50 (786-0): > 100 µM (inactive)
GI50 (A498): > 100 µM (inactive)
GI50 (A549): > 100 µM (inactive)
GI50 (ACHN): > 100 µM (inactive)
GI50 (CAKI-1): > 100 µM (inactive)
GI50 (CCRF-CEM): > 100 µM (inactive)
GI50 (COLO 205): > 100 µM (inactive)
GI50 (DLD-1): > 100 µM (inactive)
GI50 (DMS-114): 82.4 µM (inactive)
GI50 (EKVX): 70.6 µM (inactive)
GI50 (HCC 2998): > 100 µM (inactive)
GI50 (HCT-116): > 100 µM (inactive)
GI50 (HCT-15): > 100 µM
GI50 (HL-60): > 100 µM (inactive)
GI50 (HOP-62): > 100 µM (inactive)
GI50 (HT-29): > 100 µM (inactive)
GI50 (IGROV-1): > 100 µM (inactive)
GI50 (K562): 96.4 µM (inactive)
GI50 (LXFL 529): 90.4 µM (inactive)
GI50 (M14): > 100 µM (inactive)
GI50 (M19-MEL): > 100 µM (inactive)
GI50 (MOLT-4): > 100 µM (inactive)
GI50 (Malme-3M): > 100 µM (inactive)
GI50 (NCI-H226): > 100 µM (inactive)
GI50 (NCI-H23): > 100 µM (inactive)
GI50 (NCI-H460): > 100 µM (inactive)
GI50 (NCI-H522): > 100 µM (inactive)
GI50 (OVCAR-3): > 100 µM (inactive)
GI50 (OVCAR-4): > 100 µM (inactive)
GI50 (OVCAR-5): > 100 µM (inactive)
GI50 (OVCAR-8): > 100 µM (inactive)
GI50 (RPMI-8226): > 100 µM (inactive)
GI50 (SF-268): > 100 µM (inactive)
GI50 (SF-295): > 100 µM (inactive)
GI50 (SK-MEL-28): > 100 µM (inactive)
GI50 (SK-MEL-2): > 100 µM (inactive)
GI50 (SK-MEL-5): > 100 µM (inactive)
GI50 (SK-OV-3): > 100 µM (inactive)
GI50 (SN12C): > 100 µM (inactive)
GI50 (SNB-19): > 100 µM (inactive)
GI50 (SNB-75): 46.2 µM (inactive)
GI50 (SNB-78): > 100 µM (inactive)
GI50 (SR): > 100 µM (inactive)
GI50 (SW-620): > 100 µM (inactive)
GI50 (TK-10): > 100 µM (inactive)
GI50 (U-251): > 100 µM (inactive)
GI50 (UACC-257): > 100 µM (inactive)
GI50 (UACC-62): > 100 µM (inactive)
GI50 (UO-31): 90.2 µM (inactive)

CC1CC2C(=O)N(c3ccccc3)C(=O)C2c2c1c1ccccc1n2Cc1ccccc1 (stereo not given)
GI50 (786-0): > 100 µM (inactive)
GI50 (A549): 32.1 µM (inactive)
GI50 (ACHN): 39.1 µM (inactive)
GI50 (CAKI-1): > 100 µM (inactive)
GI50 (CCRF-CEM): > 100 µM (inactive)
GI50 (COLO 205): 49.8 µM (inactive)
GI50 (DLD-1): 12.5 µM (inactive)
GI50 (DMS-114): 31 µM (inactive)
GI50 (EKVX): > 100 µM (inactive)
GI50 (HCT-116): 29.3 µM (inactive)
GI50 (HCT-15): 35.1 µM
GI50 (HL-60): 10.5 µM (inactive)
GI50 (HOP-62): > 100 µM (inactive)
GI50 (HOP-92): 9.84 µM (inactive)
GI50 (HT-29): > 100 µM (inactive)
GI50 (IGROV-1): > 100 µM (inactive)
GI50 (K562): 14.5 µM (inactive)
GI50 (KM12): 7.52 µM (inactive)
GI50 (LOX IMVI): > 100 µM (inactive)
GI50 (LXFL 529): > 100 µM (inactive)
GI50 (M14): > 100 µM (inactive)
GI50 (M19-MEL): > 100 µM (inactive)
GI50 (MOLT-4): 58.5 µM (inactive)
GI50 (Malme-3M): > 100 µM (inactive)
GI50 (NCI-H226): 33.3 µM (inactive)
GI50 (NCI-H460): > 100 µM (inactive)
GI50 (NCI-H522): 17.7 µM (inactive)
GI50 (OVCAR-3): > 100 µM (inactive)
GI50 (OVCAR-4): > 100 µM (inactive)
GI50 (OVCAR-5): > 100 µM (inactive)
GI50 (OVCAR-8): > 100 µM (inactive)
GI50 (RPMI-8226): > 100 µM (inactive)
GI50 (SF-268): > 100 µM (inactive)
GI50 (SF-295): > 100 µM (inactive)
GI50 (SF-539): > 100 µM (inactive)
GI50 (SK-MEL-2): > 100 µM (inactive)
GI50 (SK-MEL-5): > 100 µM (inactive)
GI50 (SK-OV-3): > 100 µM (inactive)
GI50 (SN12C): > 100 µM (inactive)
GI50 (SR): 27.2 µM (inactive)
GI50 (SW-620): > 100 µM (inactive)
GI50 (UACC-62): > 100 µM (inactive)
GI50 (UO-31): > 100 µM (inactive)

COc1ccc(OC(=O)N2C/C(=C\c3ccccc3)C(=O)/C(=C/c3ccccc3)C2)cc1
GI50 (786-0): 2.96 µM (inactive)
GI50 (A498): 2.33 µM (inactive)
GI50 (A549): 15.2 µM (inactive)
GI50 (ACHN): 3.94 µM (inactive)
GI50 (BT-549): 2.24 µM (inactive)
GI50 (CCRF-CEM): 1.02 µM (active)
GI50 (COLO 205): 7.74 µM (inactive)
GI50 (DLD-1): 1.71 µM (inactive)
GI50 (DMS-273): 2.09 µM (inactive)
GI50 (DU-145): 24.9 µM (inactive)
GI50 (EKVX): 16.6 µM (inactive)
GI50 (HCC 2998): 2.9 µM (inactive)
GI50 (HCT-116): 0.355 µM (active)
GI50 (HCT-15): 2.79 µM
GI50 (HL-60): 0.746 µM (active)
GI50 (HOP-18): 16.8 µM (inactive)
GI50 (HOP-62): 8.15 µM (inactive)
GI50 (HOP-92): 19.1 µM (inactive)
GI50 (HT-29): 1.27 µM (inactive)
GI50 (Hs-578T): 2.11 µM (inactive)
GI50 (IGROV-1): 5.6 µM (inactive)
GI50 (K562): 0.824 µM (active)
GI50 (KM-20L2): 5.42 µM (inactive)
GI50 (KM12): 1.43 µM (inactive)
GI50 (LOX IMVI): 0.962 µM (active)
GI50 (LXFL 529): 2.64 µM (inactive)
GI50 (M14): 2.62 µM (inactive)
GI50 (M19-MEL): 1.38 µM (inactive)
GI50 (MCF7): 0.697 µM (active)
GI50 (MDA-MB-231): 3.21 µM (inactive)
GI50 (MDA-N): 1.76 µM (inactive)
GI50 (MOLT-4): 1.49 µM (inactive)
GI50 (Malme-3M): 11.1 µM (inactive)
GI50 (NCI-H226): 10.1 µM (inactive)
GI50 (NCI-H23): 5.05 µM (inactive)
GI50 (NCI-H460): 5.42 µM (inactive)
GI50 (NCI-H522): 2.05 µM (inactive)
GI50 (OVCAR-3): 6.85 µM (inactive)
GI50 (OVCAR-4): 8.17 µM (inactive)
GI50 (OVCAR-5): 7.64 µM (inactive)
GI50 (OVCAR-8): 2.47 µM (inactive)
GI50 (PC-3): 3.66 µM (inactive)
GI50 (RPMI-8226): 0.0476 µM (active)
GI50 (RXF 393): 2.58 µM (inactive)
GI50 (SF-268): 3.67 µM (inactive)
GI50 (SF-295): 2.99 µM (inactive)
GI50 (SF-539): 7.82 µM (inactive)
GI50 (SK-MEL-28): 2.14 µM (inactive)
GI50 (SK-MEL-2): 11.6 µM (inactive)
GI50 (SK-MEL-5): 3.09 µM (inactive)
GI50 (SK-OV-3): 8.69 µM (inactive)
GI50 (SN12C): 2.43 µM (inactive)
GI50 (SNB-19): 4.62 µM (inactive)
GI50 (SNB-75): 7.83 µM (inactive)
GI50 (SNB-78): 3.43 µM (inactive)
GI50 (SR): 0.222 µM (active)
GI50 (SW-620): 1.03 µM (active)
GI50 (T47D): 16 µM (inactive)
GI50 (TK-10): 18.2 µM (inactive)
GI50 (U-251): 2.48 µM (inactive)
GI50 (UACC-257): 3.74 µM (inactive)
GI50 (UACC-62): 2.16 µM (inactive)
GI50 (UO-31): 10.2 µM (inactive)
